Data published in patent US9790211B2, “5-amino-quinoline-8-carboxamide derivatives as 5-HT4 receptor agonists” (SUVEN LIFE SCIENCES LIMITED, priority 2013, dated 2017).
pEC50: −log10 of the molar value. Where two headings read alike, the source gives them in different places.

Biological target: T1, recombinant human 5-HT4 receptor (Homo sapiens, UniProt Q13639)
T1 construct: expressed in transfected cells
Test: Determination of EC50 values for 5-HT4 receptor (CHO cells, pCRE-Luc reporter)
Format: cell-based
Details: for pEC50: 4 hours incubation
Method: Determination of EC50 Values for 5-HT4 Receptor
A stable CHO cell line expressing recombinant human 5-HT4 receptor and pCRE-Luc reporter system was used for cell-based assay. The assay offers a non-radioactive based approach to determine binding of a compound to GPCRs. In this specific assay, the level of intracellular cyclic AMP, which is modulated by activation, or inhibition of the receptor is measured. The recombinant cells harbor luciferase reporter gene under the control of cAMP response element.
The above cells were grown in 96 well clear bottom white plates in Hams F12 medium containing 10% fetal bovine serum (FBS). Prior to the addition of compounds or standard agonist, cells were serum starved overnight. Increasing concentrations of test compounds were added in OptiMEM medium to the cells. The incubation was continued at 37° C. in CO2 incubator for 4 hours. Medium was removed and cells were washed with phosphate buffered saline. The cells were lysed and luciferase activity was measured in a Luminometer. Luminescence units were plotted against the compound concentrations using Graphpad software.

[1] = CHO cells, human 5-HT4 receptor, luciferase reporter
[2] = CHO, CHO cells, human 5-HT4 receptor, luciferase reporter, read-out: Emax

T1 sequence (Q13639 whole entry): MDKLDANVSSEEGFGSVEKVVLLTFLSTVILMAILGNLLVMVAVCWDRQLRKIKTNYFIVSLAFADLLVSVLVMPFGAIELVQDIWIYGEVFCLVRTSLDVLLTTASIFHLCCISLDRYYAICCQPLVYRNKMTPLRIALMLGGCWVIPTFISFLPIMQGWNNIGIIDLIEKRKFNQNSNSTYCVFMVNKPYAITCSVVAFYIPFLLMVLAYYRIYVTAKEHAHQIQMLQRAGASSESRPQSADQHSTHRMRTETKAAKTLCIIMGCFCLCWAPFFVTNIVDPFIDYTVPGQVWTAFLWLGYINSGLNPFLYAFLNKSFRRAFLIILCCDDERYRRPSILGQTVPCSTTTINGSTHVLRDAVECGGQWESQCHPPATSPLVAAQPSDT

Molecule	Emax [1]	pEC50 [1]	Emax [2]	Emax (CHO)
5-Amino-6-chloro-N-{[3-(2-fluoro-2-methyl propyl)-3-azabicyclo[3.1.0]hex-6-yl]methyl} quinoline-8-carboxamide [Example 47]	79%	8.80		
Nc1c(Cl)cc(C(=O)NCC2[C@H]3CN(CC4CCOCC4)C[C@@H]23)c2ncccc12 (mixture of isomers) [Example 15, 5-Amino-6-chloro-N-{[3-(tetrahydro-2H-pyran-4-ylmethyl)-3-azabicyclo[3.1.0]hex-6-yl]methyl}quinoline-8-carboxamide (exo/endo mixture)]		9.30	54%	
Nc1c(Cl)cc(C(=O)NC2CCN(CC3CCOCC3)CC2)c2ncccc12 [Example 3, 5-Amino-6-chloro-N-[1-(tetrahydro-2H-pyran-4-ylmethyl)-4-piperidinyl]quinoline-8-carboxamide]		8.60	79%	
Nc1c(Cl)cc(C(=O)NCC2CCN(C3CCOCC3)CC2)c2ncccc12 [Example 6, 5-Amino-6-chloro-N-{[1-(tetrahydro-2H-pyran-4-yl)-4-piperidinyl]methyl}quinoline-8-carboxamide L(+)-tartarate]		10.00		56%
Nc1c(Cl)cc(C(=O)NCC2C3CN(CC4CCOC4)CC23)c2ncccc12 (centres unmarked) [Example 7, 5-Amino-6-chloro-N-{[3-(tetrahydro-3-furanylmethyl)-3-azabicyclo[3.1.0]hex-6-yl]methyl}quinoline-8-carboxamide]		9.24	71%	
CC(C)CN1CC2C(CNC(=O)c3cc(Cl)c(N)c4cccnc34)C2C1 (stereo not drawn) [Example 8, 5-Amino-6-chloro-N-{[3-isobutyl-3-azabicyclo[3.1.0]hex-6-yl]methyl}quinoline-8-carboxamide L(+)-tartarate]		9.15		87%
Nc1c(Cl)cc(C(=O)NCC2C3CN(CC4CC4)CC23)c2ncccc12 (stereo not drawn) [Example 9, 5-Amino-6-chloro-N-{[3-cyclopropylmethyl-3-azabicyclo[3.1.0]hex-6-yl]methyl} quinoline-8-carboxamide L(+)-tartarate]		9.10		87%
CC(C)N1CC2C(CNC(=O)c3cc(Cl)c(N)c4cccnc34)C2C1 (stereo not drawn) [Example 10, 5-Amino-6-chloro-N-{[3-isopropyl-3-azabicyclo[3.1.0]hex-6-yl]methyl}quinoline-8-carboxamide L(+)-tartarate]		8.82		83%
Nc1c(F)cc(C(=O)NCC2CCN(CC3CCOCC3)CC2)c2ncccc12 [Example 11, 5-Amino-6-fluoro-N-{[1-(tetrahydro-2H-pyran-4-ylmethyl)-4-piperidinyl]methyl} quinoline-8-carboxamide L(+)-tartarate]		9.52		77%
Nc1c(Cl)cc(C(=O)NCC2CCN(CC3CCOCC3)C2)c2ncccc12 (stereo not drawn) [Example 12, 5-Amino-6-chloro-N-{[1-(tetrahydro-2H-pyran-4-ylmethyl)-3-pyrrolidinyl]methyl} quinoline-8-carboxamide L(+)-tartarate]		9.70		83%
Nc1c(Br)cc(C(=O)NCC2CCN(CC3CCOCC3)CC2)c2ncccc12 [Example 16, 5-Amino-6-bromo-N-{[1-(tetrahydro-2H-pyran-4-ylmethyl)-4-piperidinyl]methyl} quinoline-8-carboxamide L(+)-tartarate]		10.10		62%
Nc1c(Br)cc(C(=O)NCC2C3CN(CC4CCOCC4)CC23)c2ncccc12 (stereo not drawn) [Example 17, 5-Amino-6-bromo-N-{[3-(tetrahydro-2H-pyran-4-ylmethyl)-3-azabicyclo[3.1.0]hex-6-yl]methyl}quinoline-8-carboxamide L(+)-tartarate]		9.10		72%
Nc1c(Cl)cc(C(=O)NCC2(F)CCN(CC3CCOCC3)CC2)c2ncccc12 [Example 20, 5-Amino-6-chloro-N-{[4-fluoro-1-(tetrahydro-2H-pyran-4-ylmethyl)-4-piperidinyl]methyl}quinoline-8-carboxamide L(+)-tartarate]		8.96		58%
Nc1c(Cl)cc(C(=O)NCC2(O)CCN(CC3CCOCC3)CC2)c2ncccc12 [Example 22, 5-Amino-6-chloro-N-{[4-hydroxy-1-(tetrahydro-2H-pyran-4-ylmethyl)-4-piperidinyl]methyl}quinoline-8-carboxamide L(+)-tartarate]		9.70		86%
Nc1c(Cl)cc(C(=O)NC2CCN(CC3(O)CCOCC3)CC2)c2ncccc12 [Example 24, 5-Amino-6-chloro-N-[1-(4-hydroxytetrahydro-2H-pyran-4-ylmethyl)-4-piperidinyl] quinoline-8-carboxamide]		8.39	81%	
Nc1c(Cl)cc(C(=O)NCC2C3CN(CC4(O)CCOCC4)CC23)c2ncccc12 (stereo not drawn) [Example 25, 5-Amino-6-chloro-N-{[3-(4-hydroxytetrahydro-2H-pyran-4-ylmethyl)-3-azabicyclo[3.1.0]hex-6-yl]methyl}quinoline-8-carboxamideL(+)-tartarate]		9.22		93%
Nc1c(Cl)cc(C(=O)NCC2CCN(CC3(O)CCOCC3)CC2)c2ncccc12 [Example 26, 5-Amino-6-chloro-N-{[1-(4-hydroxytetrahydro-2H-pyran-4-ylmethyl)-4-piperidinyl]methyl}quinoline-8-carboxamide]			65%	
Nc1c(F)cc(C(=O)NCC2CCN(CC3(O)CCOCC3)CC2)c2ncccc12 [Example 28]		10.00		66%
Nc1c(Cl)cc(C(=O)NCC2(O)CCN(CC3(O)CCOCC3)CC2)c2ncccc12 [Example 29, 5-Amino-6-chloro-N-{[4-hydroxy-1-(4-hydroxytetrahydro-2H-pyran-4-ylmethyl)-4-piperidinyl]methyl}quinoline-8-carboxamide L(+)-tartarate]		10.00		84%
Nc1c(Cl)cc(C(=O)NCC2CCN(CC3(F)CCOCC3)CC2)c2ncccc12 [Example 30, 5-Amino-6-chloro-N-{[1-(4-fluorotetrahydro-2-pyran-4-ylmethyl)-4-piperidinyl]methyl}quinoline-8-carboxamide L(+)tartarate]		10.00		65%
COC(=O)C(C)(C)CN1CCC(CNC(=O)c2cc(Cl)c(N)c3cccnc23)CC1 [Example 31, 5-Amino-6-chloro-N-{[1-(2-methoxycarbonyl-2-methylpropan-1-yl)-4-piperidinyl]methyl}quinoline-8-carboxamide]		9.52	60%	
CC(C)(CN1CCC(CNC(=O)c2cc(Cl)c(N)c3cccnc23)CC1)C(=O)O [Example 32, 5-Amino-6-chloro-N-{[1-(2,2-dimethylproponic acid-3-yl)-4-piperidinyl]methyl}quinoline-8-carboxamide L(+)-tartarate]		8.92		60%
CC(C)(O)CN1CCC(CNC(=O)c2cc(Cl)c(N)c3cccnc23)CC1 [Example 35, 5-Amino-6-chloro-N-{[1-(2-hydroxy-2-methylpropyl)-4-piperidinyl]methyl}quinoline-8-carboxamide L(+)-tartarate]		10.00		48%
CC(C)(O)CN1CCC(F)(CNC(=O)c2cc(Cl)c(N)c3cccnc23)CC1 [Example 36, 5-Amino-6-chloro-N-{[4-fluoro-1-(2-hydroxy-2-methylpropyl)-4-piperidinyl]methyl} quinoline-8-carboxamide]		8.64	74%	
CC(C)(O)CN1CCC(F)(CNC(=O)c2cc(Cl)c(N)c3cccnc23)CC1.Cl [Example 38, 5-Amino-6-chloro-N-{[4-fluoro-1-(2-hydroxy-2-methylpropyl)-4-piperidinyl]methyl} quinoline-8-carboxamide hydrochloride]	54%	8.89		
CC(C)(O)CN1CC2C(CNC(=O)c3cc(Cl)c(N)c4cccnc34)C2C1 (stereo not drawn) [Example 40, 5-Amino-6-chloro-N-{(3-(2-hydroxy-2-methylpropyl)-3-azabicyclo[3.1.0]hex-6-yl]methyl} quinoline-8-carboxamide L(+)-tartarate]		8.41		63%
CC(C)(O)CN1CCC(CNC(=O)c2cc(F)c(N)c3cccnc23)CC1 [Example 41, 5-Amino-6-fluoro-N-{[1-(2-hydroxy-2-methylpropyl)-4-piperidinyl]methyl}quinoline-8-carboxamide L(+)-tartarate]		9.70		64%
CC(C)(O)CN1CCC(F)(CNC(=O)c2cc(F)c(N)c3cccnc23)CC1 [Example 42, 5-Amino-6-fluoro-N-{[4-fluoro-1-(2-hydroxy-2-methylpropyl)-4-piperidinyl]methyl} quinoline-8-carboxamide]		8.40	74%	
CC(C)(O)CN1CCC(CNC(=O)c2cc(Br)c(N)c3cccnc23)CC1 [Example 44, 5-Amino-6-bromo-N-{[1-(2-hydroxy-2-methylpropyl)-4-piperidinyl]methyl} quinoline-8-carboxamide L(+)-tartarate]		9.52		52%
CC(C)(O)CN1CCC(F)(CNC(=O)c2cc(Br)c(N)c3cccnc23)CC1 [Example 45, 5-Amino-6-bromo-N-{[4-fluoro-1-(2-hydroxy-2-methylpropyl)-4-piperidinyl]methyl} quinoline-8-carboxamide L(+)-tartarate]		7.93		89%
